± gives the expanded uncertainty stated by the source.
Assay: molar heat capacity at constant pressure
Conditions: 100 kPa, Extra sensitive DSC

With `CCn1cc[n+](C)c1.[Cl-]` [1-ethyl-3-methylimidazolium chloride] the “molar heat capacity at constant pressure” value (293.15 K, Crystal) was 216.99 ± 12 J/K/mol, the “molar heat capacity at constant pressure” value (303.15 K, Crystal) was 221.39 ± 12 J/K/mol and the “molar heat capacity at constant pressure” value (313.15 K, Crystal) was 224.33 ± 12 J/K/mol. For the same molecule, the “molar heat capacity at constant pressure” value (363.15 K, Liquid) was 284.44 ± 13 J/K/mol and the “molar heat capacity at constant pressure” value (373.15 K, Liquid) was 291.77 ± 13 J/K/mol.
